Reference: patent US11000512B2, “Use of DDX3 inhibitors as antiproliferative agents” (AZIENDA OSPEDALIERA UNIVERSITARIA SENESE, priority 2016, dated 2021)

How the values were obtained:
[1] = Microsomal Stability Assay (HLM); format: in vitro ADME; details: human liver microsomes, 37° C., 60 min, NADPH-generating system; percentage of not metabolized compound
Description: For the quantification was used an LC-MS system consisted of a Varian apparatus (Varian Inc) including a vacuum solvent degassing unit, two pumps (212-LC), a Triple Quadrupole MSD (Mod. 320-LC) mass spectrometer with ES interface and Varian MS Workstation System Control Vers. 6.9 software. Chromatographic separation was obtained using a Pursuit C18 column (50×2.0 mm) (Varian) with 3 μm particle size and gradient elution: eluent A being ACN and eluent B consisting of water. […] The flow rate was 0.2 mL min^−1 and injection volume was 5 μL. The instrument operated in positive mode and parameters were: detector 1850 V, drying gas pressure 25.0 psi, desolvation temperature 300.0° C., nebulizing gas 40.0 psi, needle 5000 V and shield 600 V. Nitrogen was used as nebulizer gas and drying gas. Collision induced dissociation was performed using Argon as the collision gas at a pressure of 1.8 mTorr in the collision cell. Microsomal Stability Assay. […] The reaction was stopped by cooling on ice and adding 1.0 mL of acetonitrile. The reaction mixtures were then centrifuged, and the parent drug and metabolites were subsequently determined by LC-UV-MS. Chromatographic analysis was performed with an Agilent 1100 LC/MSD VL system (G1946C) (Agilent Technologies, Palo Alto, Calif.) constituted by a vacuum solvent degassing unit, a binary high-pressure gradient pump, an 1100 series UV detector, and an 1100 MSD model VL benchtop mass spectrometer.
Chromatographic separation was obtained using a Varian Polaris C18-A column (150-4.6 mm, 5 μm particle size) and gradient elution: eluent A being ACN and eluent B consisting of water. […] The flow rate was 0.8 mL min^−1 and injection volume was 20 μL.
The Agilent 1100 series mass spectra detection (MSD) single-quadrupole instrument was equipped with the orthogonal spray API-ES (Agilent Technologies, Palo Alto, Calif.). Nitrogen was used as nebulizing and drying gas. The pressure of the nebulizing gas, the flow of the drying gas, the capillary voltage, the fragmentor voltage, and the vaporization temperature were set at 40 psi, 9 L/min, 3000 V, 70 V, and 350° C., respectively. UV detection was monitored at 280 nm. The LC-ESI-MS determination was performed by operating the MSD in the positive ion mode. Spectra were acquired over the scan range m/z 100-1500 using a step size of 0.1 u. The percentage of not metabolized compound was calculated by comparison with reference solutions.

[2] = tested on: Human Prostate Adenocarcinoma cell line (LNCaP); assay: Cytotoxicity test / growth inhibition, LNCaP; format: cell-based; details: 48 hours, cell counting
Procedure: (§1) Cells were purchased from American Type Culture Collection (ATCC, Manassas, Va., USA). The LNCaP (ATCC® CRL-1740™), A549 (ATCC® CCL-185™), MDA-MB-231 (ATCC® CRM-HTB-26™), 22Rv1 (ATCC® CRL-2505™), HCT-116 (ATCC® CCL-247™) and PC3 (ATCC® CRL-1435™) cells were maintained in Roswell Park Memorial Institute 1640 medium (RPMI; Euroclone, ECB9006L) supplemented with 10% fetal bovine serum (Euroclone; ECS0180L), 2 mM L-glutamine, 100 units/mL penicillin and […] streptomycin at 37° C. in an atmosphere of 5% CO2/air. […]
(§2) Cell lines were seeded at appropriate densities in 2 mL growth medium in 6-wells culture plates 24 hours before the treatment with the inhibitor compounds. […] Cells were incubated 48 hours with drugs and, then, cell viability was evaluated.
(§3) Cells were detached from each well of the 6-wells plates with 300 μL of Trypsin and suspended in culture medium to a final volume of 1 mL. Cell viability was then assessed through cell counting. Cells were diluted in 1:50 ratio of an isotonic buffered diluent, Isoton (Backman Coulter), following the manufacturer's instructions, and counted using an automated cell counter (Z2 series Coulter Counter, Beckman Coulter). […]

[3] = tested on: Human Prostate cell line derived from brain metastasis (DU-145); assay: Cytotoxicity test / growth inhibition, DU-145; format: cell-based; details: DU-145, 48 hours, cell counting
Procedure: (§4) Cells were purchased from American Type Culture Collection (ATCC, Manassas, Va., USA). The LNCaP (ATCC® CRL-1740™), A549 (ATCC® CCL-185™), MDA-MB-231 (ATCC® CRM-HTB-26™), 22Rv1 (ATCC® CRL-2505™), HCT-116 (ATCC® CCL-247™) and PC3 (ATCC® CRL-1435™) cells were maintained in Roswell Park Memorial Institute 1640 medium (RPMI; Euroclone, ECB9006L) supplemented with 10% fetal bovine serum (Euroclone; ECS0180L), 2 mM L-glutamine, 100 units/mL penicillin and […] streptomycin at 37° C. in an atmosphere of 5% CO2/air. DU145 (ATCC® HTB-81™), and DAOY (ATCC® HTB-186™) cells were maintained in Eagle's minimal essential medium (EMEM; Euro-clone, ECM0445L) supplemented with 10% fetal bovine serum (Euroclone; ECS0180L), 2 mM L-glutamine, 100 units/ml penicillin and […] streptomycin at 37° C. in an atmosphere of 5% CO2/air. SH-SY5Y (ATCC® CRL-2266™), DBRTG (ATCC® CRL-2020™), HeLa (ATCC® CCL-2™), HN6 cells (kindly provided by Dr Silvio Gutkind, UCSD Medical Center, Moores Cancer Center USA, Chen J. J et al, Oncotarget 2013, 4, 206-217)), U2OS (ATCC® HTB-96™), RD18 cells (kindly provided by Dr P. Boccuni Memorial Sloan-Kettering Cancer Center, New York, USA Vella S. et al. Clin Epigenetics. 2015 6; 7-82), cells were maintained in Dulbecco's modified Eagle's medium (DMEM; Euroclone, ECB7501L) supplemented with 10% fetal bovine serum (Euroclone; ECS0180L), 2 mM L-glutamine, 100 units/ml penicillin and 100 mg/mL streptomycin at 37° C. in an atmosphere of 5% CO2/air.
(§5) Cell lines were seeded at appropriate densities in 2 mL growth medium in 6-wells culture plates 24 hours before the treatment with the inhibitor compounds. After 24 h the culture medium was removed and fresh medium containing increasing concentrations of chemical compounds was added to cells. The fixed final concentrations were: 0.1 μM, 1 μM, 10 μM, 100 μM. DMSO was the vehicle used for dilution of the compounds and its final concentration on cells was less than 0.2%. Medium-only containing wells were included as controls. Cells were incubated 48 hours with drugs and, then, cell viability was evaluated.
as §3, with “Coulter). Each cell count was performed in three replicates. The values corresponding to the relative survival of cells in presence of each chemical compound at single concentrations were normalized to the untreated controls.” for “Coulter).”

[4] = tested on: Human Prostate carcinoma epithelial cell line (22Rv1); assay: Cytotoxicity test / growth inhibition, 22Rv1; format: cell-based; details: 22Rv1, 48 hours, cell counting
Procedure: as §1, §2, §3

[5] = tested on: Human Neuroblastoma cell line (SH-SY5Y); assay: Cytotoxicity test / growth inhibition, SH-SY5Y; format: cell-based; details: 48 hours, cell counting
Procedure: as §1, §2, §3

[6] = tested on: Human breast adenocarcinoma cell line (MDA-MB-231); assay: Cytotoxicity test / growth inhibition, MDA-MB-231; format: cell-based; details: MDA-MB-231, 48 hours, cell counting
Procedure: as §4, §5
(§6) Cells were detached from each well of the 6-wells plates with 300 μL of Trypsin and suspended in culture medium to a final volume of 1 mL. Cell viability was then assessed through cell counting. Cells were diluted in 1:50 ratio of an isotonic buffered diluent, Isoton (Backman Coulter), following the manufacturer's instructions, and counted using an automated cell counter (Z2 series Coulter Counter, Beckman Coulter). Each cell count was performed in three replicates. The values corresponding to the relative survival of cells in presence of each chemical compound at single concentrations were normalized to the untreated controls. Then, the half maximal inhibitory concentration (IC50) value, which represent the drug concentration that is required to induce a 50% growth inhibition in vitro, was calculated with GraphPad Prism 6.0 software using the best fitting sigmoid curve.

[7] = tested on: Human cervical carcinoma cell line (HeLa); assay: Cytotoxicity test / growth inhibition, HeLa; format: cell-based; details: 48 hours, cell counting
Procedure: as §4, with “2015 6; 7-82), cells were maintained in Dulbecco's modified Eagle's medium (DMEM; Euroclone, ECB7501L) supplemented with 10% fetal bovine serum (Euroclone; ECS0180L), 2 mM L-glutamine, 100 units/ml penicillin and 100 mg/mL streptomycin at 37° C. in an atmosphere of 5% CO2/air.” left out
as §2, §3

[8] = tested on: Human Glioblastoma cell line (U87); assay: Cytotoxicity test / growth inhibition, U87; format: cell-based; details: U87, 48 hours, cell counting
Procedure: as §5
as §3, with “Coulter). Each cell count was performed in three replicates. The values corresponding to the relative survival of cells in presence of each chemical compound at single concentrations were normalized to the untreated controls.” for “Coulter).”

[9] = tested on: Human adenocarcinomic alveolar basal epithelial cell line (A549); assay: Cytotoxicity test / growth inhibition, A549; format: cell-based; details: A549, 48 hours, cell counting
Procedure: as §4, §5, §6

[10] = Parallel Artificial Membrane Permeability Assay (PAMPA), GI; format: in vitro ADME; details: GI (intestinal) PAMPA, value in brackets
Procedure: Parallel Artificial Membrane Permeability Assay (PAMPA). Donor solution (0.5 mM) was prepared by diluting 1 mM dimethylsulfoxide (DMSO) compound stock solution using phosphate buffer (pH 7.4, 0.025 M). Filters were coated with 5 μL of a 1% (w/v) dodecane solution of phosphatidylcholine prepared from CHCl3 solution 10% w/v, for intestinal permeability. Donor solution (150 μL) was added to each well of the filter plate. To each well of the acceptor plate were added 300 μL of solution (50% DMSO in phosphate buffer). All compounds were tested in three different plates on different days. The sandwich was incubated for 5 h at room temperature under gentle shaking. After the incubation time, the plates were separated, and samples were taken from both receiver and donor sides and analyzed using LC with UV detection at 280 nm.
LC analysis were performed with a Varian Prostar HPLC system (Varian Analytical Instruments, USA) equipped with a binary pump with a manual injection valve and model Prostar 325 UV-VIS Detector. Chromatographic separations were conducted using a Polaris C18-A column (150-4.6 mm, 5 μm particle size) at a flow rate of 0.8 mL min^−1 with a mobile phase composed of 60% ACN/40% H2O.
Permeability (Papp) for PAMPA was calculated according to the following equation, obtained from Wohnsland and Faller and Sugano et al. equation with some modification in order to obtain permeability values in cm s^−1,
where VA is the volume in the acceptor well, VD is the volume in the donor well (cm^3), A is the “effective area” of the membrane (cm^2), t is the incubation time (s) and r the ratio between drug concentration in the acceptor and equilibrium concentration of the drug in the total volume (VD+VA). Drug concentration is estimated by using the peak area integration.
Membrane retentions (%) were calculated according to the following equation: […]
where r is the ratio between drug concentration in the acceptor and equilibrium concentration, D, A, and Eq represented drug concentration in the donor, acceptor and equilibrium solution, respectively.

[11] = tested on: Human Prostate cancer cell line (PC3); assay: Cytotoxicity test / growth inhibition, PC3; format: cell-based; details: PC3, 48 hours, cell counting
Procedure: as §4, with “2015 6; 7-82), cells were maintained in Dulbecco's modified Eagle's medium (DMEM; Euroclone, ECB7501L) supplemented with 10% fetal bovine serum (Euroclone; ECS0180L), 2 mM L-glutamine, 100 units/ml penicillin and 100 mg/mL streptomycin at 37° C. in an atmosphere of 5% CO2/air.” left out
as §2, §3

[12] = tested on: Human colorectal carcinoma cell line (HCT116); assay: Cytotoxicity test / growth inhibition, HCT116; format: cell-based; details: HCT-116, HCT116, 48 hours, cell counting
Procedure: as §4, with “2015 6; 7-82), cells were maintained in Dulbecco's modified Eagle's medium (DMEM; Euroclone, ECB7501L) supplemented with 10% fetal bovine serum (Euroclone; ECS0180L), 2 mM L-glutamine, 100 units/ml penicillin and 100 mg/mL streptomycin at 37° C. in an atmosphere of 5% CO2/air.” left out
as §2, §3

[13] = tested on: Human osteosarcoma cell line (U2OS); assay: Cytotoxicity test / growth inhibition, U2OS; format: cell-based; details: 48 hours, cell counting
Procedure: as §4, §5, §6

[14] = tested on: Human head and neck squamous carcinoma cell line (HN6); assay: Cytotoxicity test / growth inhibition, HN6; format: cell-based; details: HN6, 48 hours, cell counting
Procedure: as §4, §5, §6

[15] = tested on: Human muscle rhabdomyosarcoma cell line (RD18); assay: Cytotoxicity test / growth inhibition, RD18; format: cell-based; details: RD18, 48 hours, cell counting
Procedure: as §1, §2, §3

[16] = tested on: Human brain glioblastoma cell line (DBTRG); assay: Cytotoxicity test / growth inhibition, DBTRG; format: cell-based; details: 48 hours, cell counting
Procedure: as §1, §2, §3

[17] = tested on: Human medulloblastoma cell line (DAOY); assay: Cytotoxicity test / growth inhibition, DAOY; format: cell-based; details: 48 hours, cell counting
Procedure: as §1, §2, §3

[18] = molecular target: ATPase activity of DDX3 (Homo sapiens, UniProt O00571); details: Maga et al. 2008; cited from earlier work
ATPase activity of DDX3, sequence (O00571 whole entry): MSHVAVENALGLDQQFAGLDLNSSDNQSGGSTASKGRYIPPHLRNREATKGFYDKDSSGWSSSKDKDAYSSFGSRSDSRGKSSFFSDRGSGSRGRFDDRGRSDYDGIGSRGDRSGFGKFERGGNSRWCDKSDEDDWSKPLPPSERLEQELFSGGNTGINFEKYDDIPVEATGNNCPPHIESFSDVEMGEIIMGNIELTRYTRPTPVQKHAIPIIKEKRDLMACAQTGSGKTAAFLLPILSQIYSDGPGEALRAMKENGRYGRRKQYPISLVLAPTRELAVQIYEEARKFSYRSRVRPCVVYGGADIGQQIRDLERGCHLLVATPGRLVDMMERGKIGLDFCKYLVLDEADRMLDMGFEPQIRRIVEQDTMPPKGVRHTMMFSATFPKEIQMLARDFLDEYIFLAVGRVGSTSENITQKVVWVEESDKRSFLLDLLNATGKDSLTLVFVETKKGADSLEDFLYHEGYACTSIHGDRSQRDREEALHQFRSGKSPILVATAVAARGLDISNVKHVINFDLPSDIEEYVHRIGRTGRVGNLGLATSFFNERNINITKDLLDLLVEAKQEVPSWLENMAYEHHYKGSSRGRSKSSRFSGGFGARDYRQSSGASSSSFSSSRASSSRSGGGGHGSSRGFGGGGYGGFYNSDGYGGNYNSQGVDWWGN

[19] = tested on: HIV-1 (IIIB); details: HIV-1 (IIIB) in MT4-cells; cited from earlier work
[20] = tested on: MOLT-4 T-lymphocytic; details: cited from earlier work
[21] = tested on: HIV; details: viral load of PBMCs infected with HIV; cited from earlier work

CCCCc1cn(-c2cccc(S(=O)(=O)Nc3ccccc3C(F)(F)F)c2)nn1 [Compound 64d, 3-(4-butyl-1H-1,2,3-triazol-1-yl)-N-(2-(trifluoromethyl)phenyl)benzenesulfonamide]
Sability % [1]: 99%
IC50 [2]: 16.7 µM
IC50 [3]: 3000 nM
IC50 [4]: 14 µM
IC50 [5]: 18.8 µM
IC50 [6]: 15.7 µM
IC50 [7]: 51.7 µM
IC50 [8]: 87 µM
IC50 [9]: 21.3 µM

CCCCc1cn(-c2ccc(NC(=O)Nc3ccccc3C(F)(F)F)cc2)nn1 [Compound 22a, 1-(4-(4-butyl-1H-1,2,3-triazol-1-yl)phenyl)-3-(2-(trifluoromethyl)phenyl)urea]
PAMPA GI (RM %) membrane retention [10]: 23.9%
IC50 [3]: 100 nM
IC50 [11]: 25.6 µM
IC50 [6]: 1.4 µM
IC50 [7]: 6.29 µM
IC50 [9]: 1.4 µM
IC50 [12]: 3.9 µM
IC50 [13]: 4.2 µM
IC50 [14]: 800 nM
IC50 [15]: 3.2 µM
IC50 [16]: 5.8 µM
IC50 [17]: 3.3 µM

O=C(CN1C(=O)/C(=C/c2cccc(Br)c2)SC1=S)Nc1ccccc1O [FE15]
Ki [18]: 5.4 µM
EC50 [19]: 86.7 µM
CC50 [20]: > 200 µM

Cc1ccccc1NC(=O)Nc1cccc([N+](=O)[O-])c1 [EI01D]
EC50 [21]: 10 µM
